The values below come from patent EP2711007A1, “4-Aminopyrazolo[3,4-d]pyrimidine for use in treating or preventing primary and metastatic breast and prostate cancer” (Institut Univ. de Ciència i Tecnologia, S.A., priority 2012, dated 2014).

Assay [1] relates to MCF-7 breast cancer cell line. Nature of the assay: Tetrazolium dye proliferation (WST-1) assay, MCF-7. It is filed as cell-based. On the set-up: proliferation inhibitory effect compared with Gemcitabine: concentration or dose not given beside the values. The note with it: 5 days incubation; for proliferation inhibitory effect compared with Gemcitabine: Gemcitabine set to 0, negative = less inhibition than Gemcitabine; for inhibition at 1 µM: Homo sapiens, MCF7, 120 h, concentration not given (primary screen 1 microM), mean±SD, read-out: proliferation inhibitory effect compared with 0.1 % DMSO vehicle control group. How it is done:
(§1) Determination of the ability of compound of formula (I) and combinations between compound of formula (I) and certain therapeutic compounds described herein to inhibit the proliferation of target cells was assayed in vitro against breast and prostate tumour cells. The antiproliferative activity was measured through the commercial WST-1 proliferation measurement reagent in a two-step screening procedure: […] MCF-7 and LNCaP cells were purchased from ATCC. PNT1A cells were purchased from ECACC. The cells were grown in a subconfluent condition to maintain a logarithmic growth phase. The cells were dislodged for passage using trypsin-EDTA. The proliferation of the cell lines was evaluated by using the commercial WST-1 proliferation measurement reagent. Cells from exponentially growing cultures were plated on the 96 well plates at the appropriate seeding density in the optimal medium to give logarithmic growth over the course of the assay. The plates with MCF-7 and PNT1A cells were incubated 24h at 37°C in a humidified CO2 atmosphere to allow for recovery from trypsinization before adding of test and control compounds. […] Control compounds Ara-C and Gemcitabine stock solutions were prepared in sterile water. Each test and control compound was diluted twice the final concentration in appropriate media. Half of the final well volume of each dilution was added in six parallels to plates containing cells. […] The plates were returned to 37°C in a humidified CO2 atmosphere and incubated for 5 days. […] Following incubation the absorbance at a wavelength of 450nm was measured from each well using a multilabel counter. The absorbance at wavelength 450nm correlates linearly to number of viable cells in the well. The means and standard deviations for parallel samples were calculated and plotted as a graph.
For orientation: Tetrazolium assays rely on reduction of a dye to a coloured formazan, in cell work by metabolically active cells.

The test system of assay [2] is PNT1A immortalized normal prostate cell line. Briefly: Tetrazolium dye proliferation (WST-1) assay, PNT1A. It is filed as cell-based. The note with it: Homo sapiens, 120 h, 5 days incubation, concentration not given (primary screen 1 microM), mean±SD, read-out: proliferation inhibitory effect compared with 0.1 % DMSO vehicle control group. How it is done: as §1
Assay [3] deals with LNCaP prostate cancer cell line. Nature of the assay: Tetrazolium dye proliferation (WST-1) assay, LNCaP. It is filed as cell-based. The note with it: 5 days incubation; for inhibition at 1 µM: Homo sapiens, 120 h, concentration not given (primary screen 1 microM), mean±SD, read-out: proliferation inhibitory effect compared with 0.1 % DMSO vehicle control group; for proliferation inhibitory effect compared with Gemcitabine: Gemcitabine set to 0, negative = less inhibition than Gemcitabine. The protocol: as §1

Another assay concerns pancreatic cancer cells. Nature of the assay: Effect on other cancer cells (pancreatic). The note with it: other type of cancer cells such as pancreatic cancer cells. It is filed as cell-based.
Assay [4] deals with RC and S790 mouse mammary carcinomas. The note with it: considered non active; cited from earlier work.
In another assay the test system is acute leukaemia. The settings on record: up to 9 patients treated; cited from earlier work.

“5-Bromo-2'-deoxyuridine (Broxuridine) [Compound E]”: the “proliferation inhibitory effect compared with Gemcitabine” value in assay [1] is reported as -221.1±50.3%.
Regarding “5-Iodo-2'-deoxyuridine (Idoxuridine) [Compound F]”, in assay [1], the “proliferation inhibitory effect compared with Gemcitabine” value was -174.8±33.9%.
In the case of `Nc1ccn([C@@H]2O[C@H](CO)[C@@H](O)[C@@H]2O)c(=O)n1` [Ara-C], the inhibition at 1 µM is 66.5 ± 1.8% in assay [2], 50.1 ± 3.4% in assay [3] and 78.3 ± 3.9% in assay [1].
Turning to `Nc1ncnc2[nH]ncc12` [Compound I, 4-Aminopyrazolo[3,4-d]pyrimidine], the inhibition at 1 µM in assay [2] worked out at 18 ± 2.1%; in assay [3], 97.9 ± 0.5%; in assay [1], 98.6 ± 0.5%. In addition, in the assay with pancreatic cancer cells, the “effect on pancreatic cancer cells” value is recorded as “no effect was detected”. Moreover, the tumor growth inhibition in assay [4] is reported as 10%. The “proliferation inhibitory effect compared with Gemcitabine” value in assay [3] came to 93.1±0.7%; in assay [1], 93.8±2.4%. Further, the “antitumour activity in man” value in the assay with acute leukaemia is given as “did not demonstrate any antitumour activity in man”.
Take `O=c1[nH]c(=O)n([C@H]2C[C@H](O)[C@@H](CO)O2)cc1F` [Floxuridine]: the inhibition at 1 µM in assay [2] came out at 88.3 ± 0.6%; in assay [3], 58.3 ± 1%; in assay [1], 66.2 ± 8%. Also, the “proliferation inhibitory effect compared with Gemcitabine” value in assay [3] is on record as -34.7±3.1%; in assay [1], -50.4±35.6%.
`Nc1ccn([C@@H]2O[C@H](CO)[C@@H](O)C2(F)F)c(=O)n1` [Gemcitabine, 2',2'-difluorodeoxycytidine]: the inhibition at 1 µM amounted to 98.8 ± 0.3% in assay [2], 71.2 ± 0.8% in assay [3] and 80 ± 3.7% in assay [1]. The “proliferation inhibitory effect compared with Gemcitabine” value in assay [3] and in assay [1] was 0% each time.
